What was measured:
bedstraw = assay: Test B pre/postemergence bedstraw; type: in vivo, Galium aparine; conditions: Postemergence
Outline: (§1)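 Response is a visual 0-to-10 score relative to untreated plants, where 0 means no effect and 10 means complete control, taken twelve to sixteen days after application. Treatments went onto soil at planting and onto foliage of 1- to 4-leaf plants, using a surfactant-containing non-phytotoxic solvent.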

corn = assay: Test B pre/postemergence corn; type: in vivo, Zea mays
Outline: as §1

surinam grass = assay: Test B pre/postemergence surinam grass; type: in vivo, Brachiaria decumbens
Outline: as §1

purple nutsedge = assay: Test B pre/postemergence purple nutsedge; type: in vivo, Cyperus rotundus; conditions: for Plant response rating, Nutsedge: scale of 0 to 10 where 0 is no effect and 10 is complete control
Outline: as §1

rape = assay: Test B pre/postemergence rape; type: in vivo, Brassica napus; conditions: for Plant response rating, Rape: scale of 0 to 10 where 0 is no effect and 10 is complete control
Outline: as §1

velvetleaf = assay: Test B pre/postemergence velvetleaf; type: in vivo, Abutilon theophrasti; conditions: for Plant response rating, Velvetleaf: scale of 0 to 10 where 0 is no effect and 10 is complete control
Outline: as §1

smallflower flatsedge = assay: Test B flood test smallflower flatsedge; type: in vivo, Cyperus difformis
Outline: (§2)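 Flood test on plants grown to the 2-leaf stage; treated plants kept in greenhouse twelve to sixteen days, then visually rated against controls on a 0 (no effect) to 10 (complete control) scale.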

morningglory = assay: Test B pre/postemergence morningglory; type: in vivo, Ipomoea hederacea; conditions: for Plant response rating, Morningglory: scale of 0 to 10 where 0 is no effect and 10 is complete control
Outline: as §1

pigweed = assay: Test B pre/postemergence pigweed; type: in vivo, Amaranthus retroflexus; conditions: for Plant response rating, Redroot pigweed: scale of 0 to 10 where 0 is no effect and 10 is complete control
Outline: as §1

blackgrass = assay: Test B pre/postemergence blackgrass; type: in vivo, Alopecurus myosuroides
Outline: as §1

bamyardgrass = assay: Test B flood test barnyardgrass; type: in vivo, Echinochloa crus-galli
Outline: as §2

giant foxtail = assay: Test B pre/postemergence giant foxtail; type: in vivo, Setaria faberii
Outline: as §1

sugar beet = assay: Test B pre/postemergence sugar beet; type: in vivo, Beta vulgaris; conditions: for Plant response rating, Sugarbeets: scale of 0 to 10 where 0 is no effect and 10 is complete control
Outline: as §1

soybean = assay: Test B pre/postemergence soybean; type: in vivo, Glycine max; conditions: for Plant response rating, Soybean: scale of 0 to 10 where 0 is no effect and 10 is complete control
Outline: as §1

duck salad = assay: Test B flood test duck salad; type: in vivo, Heteranthera limosa
Outline: as §2

cocklebur = assay: Test B pre/postemergence cocklebur; type: in vivo, Xanthium strumarium
Outline: as §1

[1] = Postemergence, Rate 250 g/ha, scale 0 to 10
[2] = Postemergence, Rate 500 g/ha, scale of 0 to 10 where 0 is no effect and 10 is complete control
[3] = Preemergence, Rate 62 g/ha, scale of 0 to 10 where 0 is no effect and 10 is complete control
[4] = Preemergence, Rate 125 g/ha, scale of 0 to 10 where 0 is no effect and 10 is complete control
[5] = Preemergence, Rate 250 g/ha, scale 0 to 10, 0 is no effect, 10 is complete control
[6] = Preemergence, Rate 500 g/ha, scale 0 to 10, 0 is no effect, 10 is complete control
[7] = Rate 62 g/ha, Postemergence, scale 0 to 10 (0 no effect, 10 complete control)
[8] = Rate 125 g/ha, Postemergence, scale 0 to 10, 0 is no effect, 10 is complete control
[9] = Rate 62 g/ha, flood test species, Pre-emergence, visual evaluation after twelve to sixteen days
[10] = Rate 125 g/ha, under heading Pre-emergence, flood test species, visual evaluation after twelve to sixteen days
[11] = Rate 250 g/ha, Pre-emergence (flood test species), scale 0 to 10, 0 is no effect, 10 is complete control
[12] = Rate 500 g/ha, Pre-emergence, flood test species, scale 0 to 10 (0 no effect, 10 complete control)

SMILES: CC(C)N(C(=O)n1oc(=O)n(CCCl)c1=O)c1ccccc1 [Compound 469]
- Bedstraw plant response rating (bedstraw; Rate 250 g/ha, scale 0 to 10): 6
- Bedstraw plant response rating (bedstraw; Rate 500 g/ha, scale of 0 to 10 where 0 is no effect and 10 is complete control): 6
- Bedstraw plant response rating (bedstraw; Rate 62 g/ha, scale 0 to 10 (0 no effect, 10 complete control)): 0
- Corn plant response rating (corn; [1]): 2
- Corn plant response rating (corn; [2]): 4
- Plant response rating, Corn (corn; [3]): 0
- Plant response rating, Corn (corn; [4]): 2
- Corn plant response rating (corn; [5]): 8
- Corn plant response rating (corn; [6]): 9
- Corn plant response rating (corn; [7]): 0
- Corn plant response rating (corn; [8]): 0
- B. signalgrass plant response rating (surinam grass; Postemergence, Rate 250 g/ha, scale 0 to 10, 0 no effect, 10 complete control): 2
- B. signalgrass plant response rating (surinam grass; [2]): 6
- Plant response rating, B. signalgrass (surinam grass; [3]): 3
- Plant response rating, B. signalgrass (surinam grass; [4]): 7
- B. signalgrass plant response rating (surinam grass; [5]): 7
- B. signalgrass plant response rating (surinam grass; [6]): 10
- B. signalgrass plant response rating (surinam grass; [7]): 0
- B. signalgrass plant response rating (surinam grass; [8]): 2
- Nutsedge plant response rating (purple nutsedge; [1]): 0
- Plant response rating, Nutsedge (purple nutsedge; Preemergence, Rate 62 g/ha): 0
- Plant response rating, Nutsedge (purple nutsedge; Preemergence, Rate 125 g/ha): 0
- Nutsedge plant response rating (purple nutsedge; [5]): 0
- Nutsedge plant response rating (purple nutsedge; [7]): 0
- Nutsedge plant response rating (purple nutsedge; [8]): 0
- Rape plant response rating (rape; [1]): 0
- Plant response rating, Rape (rape; Preemergence, Rate 62 g/ha): 0
- Plant response rating, Rape (rape; Preemergence, Rate 125 g/ha): 2
- Rape plant response rating (rape; [5]): 10
- Rape plant response rating (rape; [6]): 10
- Rape plant response rating (rape; [7]): 0
- Rape plant response rating (rape; [8]): 0
- Velvetleaf plant response rating (velvetleaf; [1]): 0
- Plant response rating, Velvetleaf (velvetleaf; Preemergence, Rate 62 g/ha): 4
- Plant response rating, Velvetleaf (velvetleaf; Preemergence, Rate 125 g/ha): 5
- Velvetleaf plant response rating (velvetleaf; [5]): 6
- Velvetleaf plant response rating (velvetleaf; [6]): 7
- Velvetleaf plant response rating (velvetleaf; [7]): 0
- Velvetleaf plant response rating (velvetleaf; [8]): 0
- Plant response rating, S. Flatsedge (0 to 10 scale, 0 is no effect, 10 is complete control) (smallflower flatsedge; [9]): 0
- S. Flatsedge plant response rating (0 to 10 scale, 0 is no effect, 10 is complete control) (smallflower flatsedge; [10]): 0
- S. Flatsedge plant response rating (smallflower flatsedge; [11]): 0
- S. Flatsedge plant response rating (smallflower flatsedge; [12]): 0
- Morningglory plant response rating (morningglory; [1]): 10
- Plant response rating, Morningglory (morningglory; Preemergence, Rate 62 g/ha): 0
- Plant response rating, Morningglory (morningglory; Preemergence, Rate 125 g/ha): 0
- Morningglory plant response rating (morningglory; [5]): 0
- Morningglory plant response rating (morningglory; [6]): 1
- Morningglory plant response rating (morningglory; [7]): 9
- Morningglory plant response rating (morningglory; [8]): 9
- Redroot pigweed plant response rating (pigweed; [1]): 2
- Plant response rating, Redroot pigweed (pigweed; Preemergence, Rate 62 g/ha): 5
- Plant response rating, Redroot pigweed (pigweed; Preemergence, Rate 125 g/ha): 10
- Redroot pigweed plant response rating (pigweed; [5]): 10
- Redroot pigweed plant response rating (pigweed; [6]): 10
- Redroot pigweed plant response rating (pigweed; [7]): 0
- Redroot pigweed plant response rating (pigweed; [8]): 0
- Blackgrass plant response rating (blackgrass; [1]): 9
- Blackgrass plant response rating (blackgrass; [2]): 9
- Plant response rating, Blackgrass (blackgrass; [3]): 6
- Plant response rating, Blackgrass (blackgrass; [4]): 8
- Blackgrass plant response rating (blackgrass; [5]): 9
- Blackgrass plant response rating (blackgrass; [6]): 10
- Blackgrass plant response rating (blackgrass; [7]): 7
- Blackgrass plant response rating (blackgrass; [8]): 7
- Plant response rating, Barnyardgrass (0 to 10 scale, 0 is no effect, 10 is complete control) (bamyardgrass; [9]): 0
- Barnyardgrass plant response rating (0 to 10 scale, 0 is no effect, 10 is complete control) (bamyardgrass; [10]): 0
- Barnyardgrass plant response rating (bamyardgrass; [11]): 0
- Barnyardgrass plant response rating (bamyardgrass; [12]): 0
- Giant foxtail plant response rating (giant foxtail; [1]): 9
- Giant foxtail plant response rating (giant foxtail; [2]): 9
- Plant response rating, Giant foxtail (giant foxtail; [3]): 9
- Plant response rating, Giant foxtail (giant foxtail; [4]): 10
- Giant foxtail plant response rating (giant foxtail; [5]): 10
- Giant foxtail plant response rating (giant foxtail; [6]): 10
- Giant foxtail plant response rating (giant foxtail; [7]): 8
- Giant foxtail plant response rating (giant foxtail; [8]): 9
- Sugarbeets plant response rating (sugar beet; [1]): 2
- Plant response rating, Sugarbeets (sugar beet; Preemergence, Rate 62 g/ha): 6
- Plant response rating, Sugarbeets (sugar beet; Preemergence, Rate 125 g/ha): 8
- Sugarbeets plant response rating (sugar beet; [5]): 8
- Sugarbeets plant response rating (sugar beet; [6]): 10
- Sugarbeets plant response rating (sugar beet; [7]): 0
- Sugarbeets plant response rating (sugar beet; [8]): 0
- Soybean plant response rating (soybean; [1]): 4
- Plant response rating, Soybean (soybean; Preemergence, Rate 62 g/ha): 0
- Plant response rating, Soybean (soybean; Preemergence, Rate 125 g/ha): 0
- Soybean plant response rating (soybean; [5]): 0
- Soybean plant response rating (soybean; [6]): 2
- Soybean plant response rating (soybean; [7]): 0
- Soybean plant response rating (soybean; [8]): 1
- Plant response rating, Ducksalad (0 to 10 scale, 0 is no effect, 10 is complete control) (duck salad; [9]): 0
- Ducksalad plant response rating (0 to 10 scale, 0 is no effect, 10 is complete control) (duck salad; [10]): 0
- Ducksalad plant response rating (duck salad; [11]): 0
- Ducksalad plant response rating (duck salad; [12]): 0
- Cocklebur plant response rating (cocklebur; [1]): 0
- Cocklebur plant response rating (cocklebur; [2]): 3
- Plant response rating, Cocklebur (cocklebur; [3]): 0
- Plant response rating, Cocklebur (cocklebur; [4]): 0
- Cocklebur plant response rating (cocklebur; [5]): 0
- Cocklebur plant response rating (cocklebur; [6]): 0
- Cocklebur plant response rating (cocklebur; [7]): 0
- Cocklebur plant response rating (cocklebur; [8]): 0

— patent publication US6737383B1, “Herbicidal oxadiazolidines” (priority 1999, dated 2004)
